Where “and” joins values, the source holds several entries; their conditions need not be identical. Equal entries are not always repeated.

This assay relates to 817829-284-R-J1-PDC complex spheroids, viability. The assay can be described thus: Anticancer human tumor 817829-284-R-J1-PDC patient-derived colon adenocarcinoma cell line growth inhibition [GQUAD]. The conditions noted are these: for viability, T/C: stronger effect = lower value. An excerpt:
DNA G-quadruplex Stabilizer Agents in Combinations in Complex Spheroids
A high-throughput screen of multi-cell type tumor spheroids was designed to identify active combinations of DNA G-quadruplex stabilizer agents and targeted small molecules. Complex spheroids include a stromal component modeled by human endothelial cells (HUVEC) and fibroblasts modeled by human mesenchymal stem cells (MSCs). The concentration ranges selected for each drug and investigational agent were based upon clinically achievable concentrations if the clinical Cmax of the agent was known.
Compounds. The drugs and investigational agents: pidnarulex (CX-5461; NSC782164), APTO-253 (NSC789042), BRACO-19 (NSC847499), peposertib (NSC802822), ceralasertib (NSC780249), elimusertib (NSC800525), camonsertib (NSC841442), AZD-1390 (NSC803789), olaparib (NSC753686), talazoparib (NSC767125), ART-558 (NSC835418), sotorasib (NSC818433), MRTX-1133 (NSC836407), SN-38 (NSC673596), topotecan (NSC609699), etoposide (NSC141540), doxorubicin (NSC123127), gemcitabine (NSC613327), 5-fluorouracil (NSC19893), paclitaxel (NSC125973), vemurafenib (NSC761431), panobinostat (NSC761190), R-306465 (JNJ-16241199; NSC773264), adavosertib (NSC754352), TP-3654 (NSC805149), carboplatin (NSC241240), KSQ-4279 (NSC840948), and staurosporine (NSC755774) were obtained from the National Cancer Institute (NCI) Developmental Therapeutics Program Chemical Repository (34). The FDA-approved anticancer drug set is available from the NCI Developmental Therapeutics Program. […] The stock solutions were prepared in dimethyl sulfoxide (DMSO, Sigma-Aldrich, St. Louis, MO, cat. D2650) at 800-fold the tested concentration and stored at -70 degrees C prior to their use. All drugs and investigational agents were tested over a range starting from a high concentration at or near the clinical Cmax and decreasing in half-log increments. If the clinical Cmax for an agent had not been determined, the highest concentration tested was 10 microM.
2.3 Cell Culture. All cells were maintained in an incubator at 37 degrees C and 5% CO2 with 95% humidity. The PDC lines were cultured according to standard operating procedures established by the NCI PDMR. All PDCs were thawed and cultured in Matrigel-coated flasks prepared with a working solution of 1X Ham's F-12 nutrient mix, without supplementation (Invitrogen, cat. 11765054), 100 U/mL penicillin-streptomycin (Invitrogen, cat. 15140122), and 2.5% Matrigel (Corning Inc., cat. 354248) for the first three passages. The 857933-349-R-J2-PDC line was cultured in 6C/Colon 1B media, which includes advanced DMEM/F-12 (Thermo Fisher Scientific, cat. 12634028), 10 mM HEPES (Thermo Fisher Scientific, cat. 15630080), 1X GlutaMAX supplement (Thermo Fisher Scientific, cat. 35050061), 0.1 mg/mL primocin (InvivoGen, cat. ant-pm-2), 10% defined fetal bovine serum, heat inactivated (HyClone Laboratories Inc., cat. SH30070.03HI), 50% L-WRN conditioned media (ATCC, cat. CRL-3276), 1.25 mM N-Acetyl-L-cysteine (Sigma-Aldrich, cat. A9165), 10 mM nicotinamide (Sigma-Aldrich, cat. N0636), 1X B-27 supplement (Thermo Fisher Scientific, cat. 17504044), 1X N-2 supplement (Thermo Fisher Scientific, cat. 17502048), 10 microM Y-27632 dihydrochloride (Tocris Bioscience, cat. 1254), and 50 ng/mL human EGF recombinant protein (Thermo Fisher Scientific, cat. PHG0311). The 485176-168-R4-J1-PDC line was cultured in Panc media, which includes all 6C/Colon 1B media components plus 100 ng/mL human FGF-10 (Thermo Fisher Scientific, cat. 100-26), 500 nM SB-431542 (Selleckchem, cat. S1067), and gastrin (Tocris, cat. 3006).
[…]
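Also: spheroids exposed to agents for 7 days before readout.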
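For viability, T/C in this document: percent viability relative to DMSO vehicle control taken as 100%.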

Broadly, the viability, T/C is the result in the treated group divided by that in the control group, in per cent. One may read the IC50 as the concentration that inhibits the measured activity by half. As for `Cn1ncnc1[C@H]1c2n[nH]c(=O)c3cc(F)cc(c23)N[C@@H]1c1ccc(F)cc1`, the viability, T/C is, setting by setting: (compound 0.000999 µM) 111% and 90.3% and 92.1%; (compound 0.00316 µM) 86.5% and 83.5% and 92.8%; (compound 0.00999 µM) 106% and 112% and 101%; (compound 0.0316 µM) 91.3% and 82.8% and 82%; (compound 0.0999 µM) 83.5% and 82.1% and 84%; (compound 0.316 µM) 72.2% and 75.2% and 66.5%. Under “curve of compound”, the half-inhibitory concentration (IC50) was > 316 nM.
With `CC1COCCN1c1cc(C2(S(C)(=N)=O)CC2)nc(-c2ccnc3[nH]ccc23)n1` (stereo not drawn), the viability, T/C was 112% and 93.9% and 91.7% (compound 0.0316 µM); 89.1% and 102% and 105% (compound 0.1 µM); 93.1% and 88.9% and 90% (compound 0.316 µM); 24.1% and 27.1% and 31.6% (compound 1 µM); 11% and 9.68% and 11.2% (compound 3.16 µM); 8.31% and 9.22% and 9.36% (compound 10 µM). Further, the IC50 (curve of compound) was 649 nM and 654 nM and 697 nM.
In the case of `COc1cccc2c1C(=O)c1c(O)c3c(c(O)c1C2=O)CC(O)(C(=O)CO)CC3OC1CC(N)C(O)C(C)O1` (stereo not drawn) + CN(C)c1ccc(Nc2c3ccc(NC(=O)CCN4CCCC4)cc3nc3cc(NC(=O)CCN4CCCC4)ccc23)cc1, the IC50 (curve of first compound, second compound 0.0316 µM) was 95.5 nM; the half-inhibitory concentration (IC50) (curve of first compound, second compound 0.1 µM) was 94.5 nM; the IC50 (curve of first compound, second compound 0.316 µM) was 93.4 nM; the half-maximal inhibitory concentration (IC50) (curve of first compound, second compound 1 µM) amounted to 96.4 nM; the IC50 (curve of first compound, second compound 3.16 µM) came out at 91 nM; the half-maximal inhibitory concentration (IC50) (curve of first compound, second compound 10 µM) amounted to 95.7 nM. Besides, the viability, T/C was 80.9% (second compound 0.0316 µM, first compound 0.0316 µM); 39.6% (second compound 0.0316 µM, first compound 0.1 µM); 41% (second compound 0.0316 µM, first compound 0.316 µM); 10% (second compound 0.0316 µM, first compound 1 µM); 0.59% (second compound 0.0316 µM, first compound 3.16 µM); 0.64% (second compound 0.0316 µM, first compound 10 µM). Besides, the viability, T/C runs as follows: (second compound 0.1 µM, first compound 0.0316 µM) 79.7%; (second compound 0.1 µM, first compound 0.1 µM) 43.4%; (second compound 0.1 µM, first compound 0.316 µM) 35.5%; (second compound 0.1 µM, first compound 1 µM) 10.1%; (second compound 0.1 µM, first compound 3.16 µM) 0.47%; (second compound 0.1 µM, first compound 10 µM) 0.28%. The viability, T/C was 82.7% (second compound 0.316 µM, first compound 0.0316 µM); 37.8% (second compound 0.316 µM, first compound 0.1 µM); 40.4% (second compound 0.316 µM, first compound 0.316 µM); 9.85% (second compound 0.316 µM, first compound 1 µM); 0.54% (second compound 0.316 µM, first compound 3.16 µM); 0.34% (second compound 0.316 µM, first compound 10 µM). Moreover, the viability, T/C (second compound 1 µM, first compound 0.0316 µM) was 83.1%; the viability, T/C (second compound 1 µM, first compound 0.1 µM) is 38.4%; the viability, T/C (second compound 1 µM, first compound 0.316 µM) is 40.9%; the viability, T/C (second compound 1 µM, first compound 1 µM) was 10.8%; the viability, T/C (second compound 1 µM, first compound 3.16 µM) is 0.57%; the viability, T/C (second compound 1 µM, first compound 10 µM) was 0.34%. The viability, T/C reads like this: (second compound 3.16 µM, first compound 0.0316 µM) 91.9%; (second compound 3.16 µM, first compound 0.1 µM) 37.6%; (second compound 3.16 µM, first compound 0.316 µM) 33.8%; (second compound 3.16 µM, first compound 1 µM) 9.5%; (second compound 3.16 µM, first compound 3.16 µM) 0.71%; (second compound 3.16 µM, first compound 10 µM) 0.36%. Moreover, the viability, T/C runs as follows: (second compound 10 µM, first compound 0.0316 µM) 85.8%; (second compound 10 µM, first compound 0.1 µM) 39%; (second compound 10 µM, first compound 0.316 µM) 37.6%; (second compound 10 µM, first compound 1 µM) 12.3%; (second compound 10 µM, first compound 3.16 µM) 1%; (second compound 10 µM, first compound 10 µM) 0.33%.
For the compound `COc1ccc([C@@H](O)c2cc(-c3ncnc4cc(N5CCOCC5)ccc34)c(F)cc2Cl)nn1`, the viability, T/C reads like this: (compound 0.0316 µM) 103% and 96.1% and 90.7%; (compound 0.1 µM) 90.9% and 95.3% and 105%; (compound 0.316 µM) 106% and 104% and 100%; (compound 1 µM) 80.6% and 84.1% and 83.6%; (compound 3.16 µM) 84.3% and 82.3% and 64.7%; (compound 10 µM) 53.4% and 67.6% and 39.1%. Under “curve of compound”, the IC50 was > 10000 nM and 6030 nM.

The record behind these values is PubChem BioAssay AID2060503 (Molecular Pharmacology Branch, DTP, NCI, 2025).
